One block for each compound: values may come before it.
Legend:
[1] = molecular target: Substance-P receptor (Homo sapiens) (UniProt P25103); test: Selectivity interaction (Eurofins CEREP Diversity Profile (receptors and ion channels)) EUB0000279b TACR1; details: at 10 µM
[2] = molecular target: Fibroblast growth factor receptor 4 (Homo sapiens, UniProt P22455); test: Selectivity interaction (KinomeScan (DiscoverX)) EUB0000655a FGFR4; details: at 10 µM
[3] = molecular target: Protein-tyrosine kinase 2-beta (Homo sapiens) (UniProt Q14289); test: Selectivity interaction (KinomeScan (DiscoverX)) EUB0000607a PTK2B; details: at 10 µM
Sequence of Protein-tyrosine kinase 2-beta (Homo sapiens) (Q14289 whole entry, looked up): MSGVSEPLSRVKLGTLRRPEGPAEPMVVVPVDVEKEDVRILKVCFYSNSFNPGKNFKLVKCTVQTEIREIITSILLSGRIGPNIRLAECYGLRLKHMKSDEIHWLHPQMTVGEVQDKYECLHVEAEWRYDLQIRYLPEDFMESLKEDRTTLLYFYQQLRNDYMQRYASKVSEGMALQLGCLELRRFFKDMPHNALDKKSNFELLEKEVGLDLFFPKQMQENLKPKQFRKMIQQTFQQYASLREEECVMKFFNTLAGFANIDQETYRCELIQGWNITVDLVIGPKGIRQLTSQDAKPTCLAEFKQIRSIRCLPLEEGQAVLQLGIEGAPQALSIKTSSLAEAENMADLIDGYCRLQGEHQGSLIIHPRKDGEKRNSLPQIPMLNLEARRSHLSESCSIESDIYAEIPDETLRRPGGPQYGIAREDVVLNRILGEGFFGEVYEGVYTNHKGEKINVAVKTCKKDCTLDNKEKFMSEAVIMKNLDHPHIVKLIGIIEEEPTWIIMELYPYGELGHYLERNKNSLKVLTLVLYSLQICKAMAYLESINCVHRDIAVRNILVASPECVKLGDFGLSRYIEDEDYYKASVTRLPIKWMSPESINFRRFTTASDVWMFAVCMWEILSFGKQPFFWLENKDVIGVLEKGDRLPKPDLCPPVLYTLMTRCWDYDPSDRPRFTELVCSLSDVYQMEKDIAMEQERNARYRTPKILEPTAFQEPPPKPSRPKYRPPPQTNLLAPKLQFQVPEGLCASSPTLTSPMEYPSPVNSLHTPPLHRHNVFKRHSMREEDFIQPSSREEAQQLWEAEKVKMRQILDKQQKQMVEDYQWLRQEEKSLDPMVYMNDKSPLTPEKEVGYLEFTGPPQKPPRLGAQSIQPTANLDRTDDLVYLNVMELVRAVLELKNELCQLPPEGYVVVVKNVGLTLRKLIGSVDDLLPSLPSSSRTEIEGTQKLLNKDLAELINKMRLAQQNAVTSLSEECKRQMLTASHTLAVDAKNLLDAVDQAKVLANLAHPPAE

[4] = molecular target: T1, Tyrosine-protein kinase JAK3 (Homo sapiens) (UniProt P52333); test: Selectivity interaction (SelectScreen profiling (Invitrogen)) EUB0000607a JAK3; details: at 2 µM
T1 sequence (whole entry): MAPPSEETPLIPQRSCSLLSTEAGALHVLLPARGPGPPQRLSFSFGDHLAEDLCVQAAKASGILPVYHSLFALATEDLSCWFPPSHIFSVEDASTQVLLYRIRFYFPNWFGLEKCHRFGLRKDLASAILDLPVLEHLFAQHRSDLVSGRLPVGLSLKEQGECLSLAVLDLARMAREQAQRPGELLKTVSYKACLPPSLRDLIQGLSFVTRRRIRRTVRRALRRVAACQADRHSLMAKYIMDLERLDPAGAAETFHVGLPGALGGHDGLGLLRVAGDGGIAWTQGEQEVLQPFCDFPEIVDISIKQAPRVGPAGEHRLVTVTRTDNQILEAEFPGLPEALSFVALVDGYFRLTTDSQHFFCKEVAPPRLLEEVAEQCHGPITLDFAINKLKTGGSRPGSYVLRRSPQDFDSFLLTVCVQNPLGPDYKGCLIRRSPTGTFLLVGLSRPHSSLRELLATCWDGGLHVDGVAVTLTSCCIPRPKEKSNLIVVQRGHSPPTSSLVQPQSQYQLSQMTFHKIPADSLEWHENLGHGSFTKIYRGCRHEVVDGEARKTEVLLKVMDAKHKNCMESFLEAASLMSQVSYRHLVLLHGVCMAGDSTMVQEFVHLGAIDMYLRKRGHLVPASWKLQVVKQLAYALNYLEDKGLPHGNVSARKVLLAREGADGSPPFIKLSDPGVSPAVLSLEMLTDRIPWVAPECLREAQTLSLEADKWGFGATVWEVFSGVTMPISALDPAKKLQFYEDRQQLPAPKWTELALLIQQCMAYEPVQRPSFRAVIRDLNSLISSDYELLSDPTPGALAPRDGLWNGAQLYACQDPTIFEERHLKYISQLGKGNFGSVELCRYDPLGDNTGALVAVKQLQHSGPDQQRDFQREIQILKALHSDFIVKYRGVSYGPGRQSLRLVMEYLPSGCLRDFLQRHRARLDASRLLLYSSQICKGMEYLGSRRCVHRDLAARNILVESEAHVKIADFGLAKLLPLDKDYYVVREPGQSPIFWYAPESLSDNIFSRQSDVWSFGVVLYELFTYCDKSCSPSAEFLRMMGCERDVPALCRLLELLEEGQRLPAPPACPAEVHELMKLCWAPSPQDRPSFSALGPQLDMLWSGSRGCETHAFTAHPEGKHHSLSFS

[5] = molecular target: Dual specificity mitogen-activated protein kinase kinase 1 (Homo sapiens, UniProt Q02750); test: Selectivity interaction (KinomeScan (DiscoverX)) EUB0001619a MAP2K1; details: at 1 µM
Sequence of Dual specificity mitogen-activated protein kinase kinase 1 (Q02750 whole entry): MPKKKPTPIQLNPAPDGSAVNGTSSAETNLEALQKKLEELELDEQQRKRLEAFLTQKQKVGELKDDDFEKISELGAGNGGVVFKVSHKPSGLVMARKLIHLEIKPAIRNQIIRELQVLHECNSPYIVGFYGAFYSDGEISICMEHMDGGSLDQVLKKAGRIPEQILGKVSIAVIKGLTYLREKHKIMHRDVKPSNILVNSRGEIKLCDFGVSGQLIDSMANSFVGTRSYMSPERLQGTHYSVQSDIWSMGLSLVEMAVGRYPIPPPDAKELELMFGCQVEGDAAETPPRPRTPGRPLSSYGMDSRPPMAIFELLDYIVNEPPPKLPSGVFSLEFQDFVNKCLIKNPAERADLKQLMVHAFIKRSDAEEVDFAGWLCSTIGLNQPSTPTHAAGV

SRSF protein kinase 1 = SRSF protein kinase 1 (Homo sapiens, UniProt Q96SB4); test: Selectivity interaction (KinomeScan (DiscoverX)) EUB0001619a SRPK1; details: at 1 µM
[6] = molecular target: TRAF2 and NCK-interacting protein kinase (Homo sapiens) (UniProt Q9UKE5); test: Selectivity interaction (KinomeScan (DiscoverX)) EUB0000595a TNIK; details: at 10 µM
Sequence of TRAF2 and NCK-interacting protein kinase (Homo sapiens) (Q9UKE5 whole entry, looked up): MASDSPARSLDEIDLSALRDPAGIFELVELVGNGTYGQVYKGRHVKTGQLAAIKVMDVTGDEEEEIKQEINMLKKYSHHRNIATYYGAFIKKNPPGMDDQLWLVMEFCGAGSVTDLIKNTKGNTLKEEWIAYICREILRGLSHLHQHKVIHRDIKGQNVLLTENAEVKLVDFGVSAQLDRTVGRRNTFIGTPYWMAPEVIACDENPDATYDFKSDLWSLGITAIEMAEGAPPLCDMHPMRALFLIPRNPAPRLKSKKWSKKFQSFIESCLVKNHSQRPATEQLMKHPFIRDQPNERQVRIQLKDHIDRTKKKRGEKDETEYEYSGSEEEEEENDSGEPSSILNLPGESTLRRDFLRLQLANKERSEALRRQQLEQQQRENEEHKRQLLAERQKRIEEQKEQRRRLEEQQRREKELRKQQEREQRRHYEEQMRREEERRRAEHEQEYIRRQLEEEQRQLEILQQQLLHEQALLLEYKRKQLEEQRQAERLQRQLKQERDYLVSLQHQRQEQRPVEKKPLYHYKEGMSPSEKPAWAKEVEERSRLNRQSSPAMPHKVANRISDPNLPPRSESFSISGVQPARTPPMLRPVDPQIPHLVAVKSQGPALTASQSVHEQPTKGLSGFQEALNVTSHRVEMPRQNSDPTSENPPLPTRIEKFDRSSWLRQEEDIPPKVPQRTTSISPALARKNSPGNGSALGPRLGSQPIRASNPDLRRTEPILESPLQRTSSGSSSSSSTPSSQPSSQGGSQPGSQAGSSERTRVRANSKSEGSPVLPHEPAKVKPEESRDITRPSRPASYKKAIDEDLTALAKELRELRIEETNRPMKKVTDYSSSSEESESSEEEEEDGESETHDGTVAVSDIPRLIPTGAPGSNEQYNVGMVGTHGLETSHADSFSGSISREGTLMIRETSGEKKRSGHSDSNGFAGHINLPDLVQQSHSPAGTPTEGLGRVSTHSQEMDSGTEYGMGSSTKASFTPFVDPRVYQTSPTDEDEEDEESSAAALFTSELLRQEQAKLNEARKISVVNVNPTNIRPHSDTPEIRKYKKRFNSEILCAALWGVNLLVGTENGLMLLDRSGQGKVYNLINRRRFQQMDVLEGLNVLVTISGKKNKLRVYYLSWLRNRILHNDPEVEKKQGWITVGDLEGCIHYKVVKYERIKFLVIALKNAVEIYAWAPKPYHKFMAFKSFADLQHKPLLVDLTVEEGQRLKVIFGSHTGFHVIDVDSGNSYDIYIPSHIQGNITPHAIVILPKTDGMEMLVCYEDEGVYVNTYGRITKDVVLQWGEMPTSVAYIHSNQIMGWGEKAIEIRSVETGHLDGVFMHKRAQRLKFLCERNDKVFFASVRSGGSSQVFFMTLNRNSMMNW

[7] = molecular target: Serine/threonine-protein kinase 38-like (Homo sapiens) (UniProt Q9Y2H1); test: Selectivity interaction (ActivX KiNativ screen (kinase selectivity in THP-1 cell lysates)) EUB0000639a STK38L; assay type: subcellular; details: lysate, at 0.2 µM
[8] = molecular target: Ribosomal protein S6 kinase alpha-2 (Homo sapiens) (UniProt Q15349); test: Selectivity interaction (KinomeScan (DiscoverX)) EUB0001049a RPS6KA2; details: at 1 µM
[9] = molecular target: T2, Serine/threonine-protein kinase tousled-like 1 (Homo sapiens) (UniProt Q9UKI8); test: Selectivity interaction (KinomeScan (DiscoverX)) EUB0000666a TLK1; details: at 10 µM
T2 sequence (whole entry): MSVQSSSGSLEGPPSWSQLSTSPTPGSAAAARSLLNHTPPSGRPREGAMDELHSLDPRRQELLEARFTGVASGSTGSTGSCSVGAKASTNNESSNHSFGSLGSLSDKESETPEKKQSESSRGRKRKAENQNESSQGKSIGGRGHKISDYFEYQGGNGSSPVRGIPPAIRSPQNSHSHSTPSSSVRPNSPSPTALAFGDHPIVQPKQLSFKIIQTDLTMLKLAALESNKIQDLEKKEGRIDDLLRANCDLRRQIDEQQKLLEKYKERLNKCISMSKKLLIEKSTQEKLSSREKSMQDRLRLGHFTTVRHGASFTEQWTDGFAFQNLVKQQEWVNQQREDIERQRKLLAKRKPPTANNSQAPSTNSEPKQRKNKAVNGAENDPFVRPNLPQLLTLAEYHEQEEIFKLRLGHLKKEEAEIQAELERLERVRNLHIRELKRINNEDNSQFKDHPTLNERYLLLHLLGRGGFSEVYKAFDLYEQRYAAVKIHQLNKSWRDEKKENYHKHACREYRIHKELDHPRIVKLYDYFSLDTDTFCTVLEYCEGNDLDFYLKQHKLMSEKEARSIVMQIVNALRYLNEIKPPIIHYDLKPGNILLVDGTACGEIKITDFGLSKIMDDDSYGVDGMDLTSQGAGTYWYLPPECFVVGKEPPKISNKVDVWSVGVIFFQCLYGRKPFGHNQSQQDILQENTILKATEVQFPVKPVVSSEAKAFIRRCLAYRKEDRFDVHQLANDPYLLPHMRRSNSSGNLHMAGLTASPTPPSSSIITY

[10] = molecular target: LIM domain kinase 2 (Homo sapiens) (UniProt P53671); test: Selectivity interaction (KinomeScan (DiscoverX)) EUB0000092b LIMK2; details: at 10 µM
[11] = molecular target: AP2-associated protein kinase 1 (Homo sapiens, UniProt Q2M2I8); test: Selectivity interaction (KinomeScan (DiscoverX)) EUB0001868a AAK1; details: at 1 µM
Sequence of AP2-associated protein kinase 1 (Q2M2I8 whole entry, looked up): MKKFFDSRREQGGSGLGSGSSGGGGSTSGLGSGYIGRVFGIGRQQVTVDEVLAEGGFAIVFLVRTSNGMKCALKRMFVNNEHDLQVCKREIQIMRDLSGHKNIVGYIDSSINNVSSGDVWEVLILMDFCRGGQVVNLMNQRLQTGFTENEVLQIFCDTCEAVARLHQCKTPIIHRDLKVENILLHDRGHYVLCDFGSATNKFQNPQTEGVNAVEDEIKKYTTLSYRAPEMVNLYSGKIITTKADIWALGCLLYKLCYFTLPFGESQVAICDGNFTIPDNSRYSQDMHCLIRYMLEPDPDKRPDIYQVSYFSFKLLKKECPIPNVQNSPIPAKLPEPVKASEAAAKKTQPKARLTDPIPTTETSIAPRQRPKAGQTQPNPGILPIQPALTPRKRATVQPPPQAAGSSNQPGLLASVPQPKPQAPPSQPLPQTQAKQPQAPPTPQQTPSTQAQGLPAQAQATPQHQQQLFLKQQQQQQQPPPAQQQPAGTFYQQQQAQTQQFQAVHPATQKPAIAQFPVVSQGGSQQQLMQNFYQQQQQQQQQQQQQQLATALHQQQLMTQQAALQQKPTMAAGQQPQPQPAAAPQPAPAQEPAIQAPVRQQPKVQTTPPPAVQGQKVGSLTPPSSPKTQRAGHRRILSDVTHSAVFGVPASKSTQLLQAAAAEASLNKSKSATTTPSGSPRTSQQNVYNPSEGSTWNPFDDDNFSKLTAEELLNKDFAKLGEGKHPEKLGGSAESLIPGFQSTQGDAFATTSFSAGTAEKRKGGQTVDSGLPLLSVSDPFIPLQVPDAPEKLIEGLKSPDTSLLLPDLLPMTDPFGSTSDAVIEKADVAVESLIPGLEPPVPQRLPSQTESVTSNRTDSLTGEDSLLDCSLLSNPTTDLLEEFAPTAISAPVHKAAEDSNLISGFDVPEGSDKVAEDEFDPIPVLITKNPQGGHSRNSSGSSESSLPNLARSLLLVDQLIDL

[12] = molecular target: Cyclin-dependent kinase 14/Cyclin-Y (Homo sapiens) (UniProt O94921+Q8ND76); test: Selectivity interaction (LanthaScreen Eu Kinase Binding Assay) EUB0001632a CDK14; assay type: protein-complex assay; details: at 10 µM
[13] = molecular target: Non-receptor tyrosine-protein kinase TYK2 (Homo sapiens, UniProt P29597); test: Selectivity interaction (Kinase panel (Z-LYTE Assay)) EUB0001632a TYK2; details: at 10 µM
[14] = molecular target: LIM domain kinase 1 (Homo sapiens) (UniProt P53667); test: Selectivity interaction (KinomeScan (DiscoverX)) EUB0000695a LIMK1; details: at 100 nM
Sequence of LIM domain kinase 1 (Homo sapiens) (P53667 whole entry, looked up, the tested form may be a part): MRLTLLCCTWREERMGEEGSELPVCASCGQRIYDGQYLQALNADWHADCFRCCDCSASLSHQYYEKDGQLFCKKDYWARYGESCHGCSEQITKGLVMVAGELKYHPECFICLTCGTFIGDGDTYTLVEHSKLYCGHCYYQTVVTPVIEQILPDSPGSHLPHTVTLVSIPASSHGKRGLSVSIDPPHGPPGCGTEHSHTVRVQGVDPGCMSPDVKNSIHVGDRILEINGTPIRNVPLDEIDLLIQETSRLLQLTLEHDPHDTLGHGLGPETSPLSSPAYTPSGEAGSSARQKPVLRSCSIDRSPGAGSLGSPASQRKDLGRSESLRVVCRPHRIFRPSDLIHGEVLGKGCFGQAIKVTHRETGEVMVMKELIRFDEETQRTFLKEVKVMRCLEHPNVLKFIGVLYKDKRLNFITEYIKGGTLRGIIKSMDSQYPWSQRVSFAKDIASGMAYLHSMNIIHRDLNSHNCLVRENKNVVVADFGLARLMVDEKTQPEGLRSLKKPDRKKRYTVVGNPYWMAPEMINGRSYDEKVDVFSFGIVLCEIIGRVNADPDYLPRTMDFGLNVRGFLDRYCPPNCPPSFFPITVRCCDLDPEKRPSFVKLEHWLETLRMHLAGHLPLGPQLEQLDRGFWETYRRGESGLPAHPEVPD

Sequence of Substance-P receptor (Homo sapiens) (P25103 whole entry): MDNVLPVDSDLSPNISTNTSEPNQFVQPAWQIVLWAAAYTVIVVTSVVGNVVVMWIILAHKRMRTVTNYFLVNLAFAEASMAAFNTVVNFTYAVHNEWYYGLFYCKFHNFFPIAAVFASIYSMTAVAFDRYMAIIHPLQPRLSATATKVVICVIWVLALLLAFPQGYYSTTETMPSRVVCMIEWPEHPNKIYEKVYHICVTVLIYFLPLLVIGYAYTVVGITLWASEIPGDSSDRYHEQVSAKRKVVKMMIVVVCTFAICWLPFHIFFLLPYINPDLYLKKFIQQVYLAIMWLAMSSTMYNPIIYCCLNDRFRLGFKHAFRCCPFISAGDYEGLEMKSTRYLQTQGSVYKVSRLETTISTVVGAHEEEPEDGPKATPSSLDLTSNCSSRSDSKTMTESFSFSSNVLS

% of control [1]: 72%
SMILES: CC(=O)c1cc(-c2ccccc2OCC2CC2)c2ncccn12

SMILES: CN(C)CCOc1ccc(-c2nc(-c3ccncc3)c(-c3ccc4c(c3)CC/C4=N\O)[nH]2)cc1
% of control [2]: 100%

SMILES: CNC(=O)Nc1ccc(-c2nc(N3CC4CCC(C3)O4)c3cnn(C4CCC5(CC4)OCCO5)c3n2)cc1
% of control [3]: 100%
% of inhibition [4]: 0%

SMILES: N#Cc1cccc(-c2c[nH]c3ncnc(N4CCOCC4)c23)c1
% of control [5]: 13%
% of control (SRSF protein kinase 1): 25%

SMILES: COCC(=O)NC/C=C/c1ccc2ncnc(Nc3ccc(Oc4ccc(C)nc4)c(C)c3)c2c1 [CP-724714]
% of control [6]: 89%

% of inhibition [7]: 18.4%
SMILES: CC[C@@H]1[C@H](F)C(=O)N[C@@H]1COc1nccc2cc(C(N)=O)c(OC)cc12 [ZIMLOVISERTIB]

SMILES: COc1cc(Nc2nc(C)cc(-c3cnn4nc(OC)ccc34)n2)cc(C(F)(F)F)c1
% of control [8]: 93%

SMILES: O=C(NOC[C@H](O)CO)c1ccc(F)c(F)c1Nc1ccc(I)cc1F
% of control [9]: 89%

SMILES: CCC(=O)N1CCN(c2ccc(-n3c(=O)ccc4cnc5ccc(-c6cnc7ccccc7c6)cc5c43)cc2C(F)(F)F)CC1
% of control [10]: 4.8%

% of control [11]: 22%
SMILES: Cc1cc(-c2ccnc(Nc3cnn(C)c3)n2)ccc1CNC(=O)N1CC(OC(C)C)C1

% of inhibition [12]: -159%
% of control [13]: 2.01%
SMILES: Cn1cc(-n2cnc3c(NCc4nc5cc(Cl)c(Cl)cc5[nH]4)nc(N4CCOCC4)nc32)cn1

SMILES: Cc1cc(F)c(C(=O)Nc2cccc(-c3nncn3C(C)C)n2)cc1-n1cnc(C2CC2)c1
% of control [14]: 99%

From ChEMBL document CHEMBL5465560, “Selectivity Literature for EUbOPEN Chemogenomic Library” (2024)
